Where a name gives a salt, the structure may show the parent alone.
Tests used:
[1] = tested on: platelet aggregation induced by epinephrine; test: inhibition of platelet aggregation induced by epinephrine; type: cell-based; conditions: Epinephrine (second phase)
Excerpt: (§1) As representative compounds, 5-bromo-6-[[(5-bromo-3-pyridinylmethyl]amino]-2-methyl-4(1H)-pyrimidinone,HBr (Compound A) and 5-cyano-2-methyl-6-[[3-pyridinyl)methyl)]amino]-4(1H)-pyrimidinone hydrochloride (Compound B) inhibited platelet aggregation as follows.

[2] = tested on: platelet aggregation induced by U46619 (endoperoxide); test: inhibition of platelet aggregation induced by U46619 (endoperoxide); type: cell-based
Excerpt: as §1

[3] = tested on: platelet aggregation induced by collagen; test: inhibition of platelet aggregation induced by collagen; type: cell-based
Excerpt: as §1

[4] = tested on: platelet aggregation induced by arachidonic acid; test: inhibition of platelet aggregation induced by arachidonic acid; type: cell-based
Excerpt: as §1

[5] = tested on: platelet aggregation induced by adenosine diphosphate; test: inhibition of platelet aggregation induced by adenosine diphosphate (ADP); type: cell-based; conditions: ADP (second phase)
Excerpt: as §1

white thrombus formation = test: inhibition of white thrombus formation in the rabbit arteriovenous model; type: in vivo

Compound	IC50 [1] [nM]	IC50 [2] [nM]	IC50 [3] [nM]	IC50 [4] [nM]	IC50 [5] [nM]	Percent Inhibition (thrombus weight) (white thrombus formation; 0.1 mg/kg i.v.) [%]	Percent Inhibition (thrombus weight) (white thrombus formation; 0.25 mg/kg i.v.) [%]	Percent Inhibition (thrombus weight) (white thrombus formation; 0.5 mg/kg i.v.) [%]	Percent Inhibition (thrombus weight) (white thrombus formation; 1.0 mg/kg i.v.) [%]	Percent Inhibition (thrombus weight) (white thrombus formation; 5.0 mg/kg i.v.) [%]
Cc1nc(NCc2cncc(Br)c2)c(Br)c(=O)[nH]1 [Compound A]	430	210	540	180	200	28.4	47.1	–	–	–
Cc1nc(NCc2cccnc2)c(C#N)c(=O)[nH]1 [Compound B, 5-cyano-2-methyl-6-[[3-pyridinyl)methyl)]amino]-4(1H)-pyrimidinone hydrochloride]	10800	6600	13300	2800	6300	–	–	41.7	56.8	76.7
